{"source": "patent US20110313156A1", "about": "(BOEHRINGER INGELHEIM INTERNATIONAL GMBH, priority 2008, published 2011)"}
{"biological_target": "T1, His6-PDK1 (aa 52-556) (Homo sapiens, UniProt O15530)", "T1 construct": "15 μL His6-PDK1 (aa 52-556) 3.33 ng/well); host or cells: baculovirus-infected insect cells", "T1 sequence (O15530 52-556)": "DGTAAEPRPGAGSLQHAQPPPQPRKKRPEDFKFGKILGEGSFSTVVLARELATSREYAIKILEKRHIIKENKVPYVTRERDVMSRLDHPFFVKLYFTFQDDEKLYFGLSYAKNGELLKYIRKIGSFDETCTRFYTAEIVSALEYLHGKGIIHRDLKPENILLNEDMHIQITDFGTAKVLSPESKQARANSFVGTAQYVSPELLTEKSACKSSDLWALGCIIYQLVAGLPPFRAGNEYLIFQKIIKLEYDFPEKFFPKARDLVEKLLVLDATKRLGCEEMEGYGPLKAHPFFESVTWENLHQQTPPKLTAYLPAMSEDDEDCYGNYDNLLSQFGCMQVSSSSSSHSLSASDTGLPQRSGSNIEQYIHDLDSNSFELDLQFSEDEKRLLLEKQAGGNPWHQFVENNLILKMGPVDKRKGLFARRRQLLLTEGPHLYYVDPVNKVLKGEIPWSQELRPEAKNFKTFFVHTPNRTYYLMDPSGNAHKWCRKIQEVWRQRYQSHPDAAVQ", "experiment": "PDK1 kinase assay III (with Tween 20)", "format": "biochemical", "details": "compound at 10 μM; PDK1 kinase assay III (values without asterisk); read-out: % CTL (residual activity of the enzyme relative to DMSO control)", "in_short": "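Started with ATP, incubated 90 min at ambient temperature, then stopped with phosphoric acid. Asterisked values come from assay II (24 h or 5 min incubation).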", "units": {"remaining activity at 10 µM": "%"}}
{"smiles": "O=C(NC/C=C/c1cc(OC2CCNCC2)c2nc(Nc3ccccc3)ncc2c1)c1cncn(Cc2ccc(F)c(F)c2)c1=O", "note": "[III-19, 1-(3,4-difluorobenzyl)-6-oxo-N-{(2E)-3-[2-(phenylamino)-8-(piperidin-4-yloxy)quinazolin-6-yl]prop-2-en-1-yl}-1,6-dihydropyrimidine-5-carboxamide]", "remaining activity at 10 µM": 17.5}
{"smiles": "Cc1c(C(=O)NC/C=C/c2ccc3c(c2)NC(=O)/C3=C\\c2ncc[nH]2)c(=O)n(Cc2ccc(F)c(F)c2)n1C", "note": "[I-41, 2-(3,4-difluorobenzyl)-N-{(2E)-3-[(3Z)-3-(1H-imidazol-2-ylmethylidene)-2-oxo-2,3-dihydro-1H-indol-6-yl]prop-2-en-1-yl}-1,5-dimethyl-3-oxo-2,3-dihydro-1H-pyrazole-4-carboxamide]", "remaining activity at 10 µM": 16.6}
{"smiles": "Cc1c(C(=O)NCC#Cc2ccc3c(-c4ccc[nH]4)n[nH]c3c2)c(=O)n(Cc2ccc(F)c(F)c2)n1C", "note": "[II-1, 2-(3,4-difluorobenzyl)-1,5-dimethyl-3-oxo-N-{3-[3-(1H-pyrrol-2-yl)-1H-indazol-6-yl]prop-2-yn-1-yl}-2,3-dihydro-1H-pyrazole-4-carboxamide]", "remaining activity at 10 µM": 13}
{"smiles": "Cc1c(C(=O)NC/C=C/c2ccc3nc(Nc4ccccn4)ncc3c2)c(=O)n(Cc2ccc(F)c(F)c2)n1C", "remaining activity at 10 µM": 22.7}
{"smiles": "Cc1c(C(=O)NC/C=C/c2ccc3nc(Nc4ccc(C(=O)N(C)C5CCN(C)CC5)c(F)c4)ncc3c2)c(=O)n(Cc2ccc(F)c(F)c2)n1C", "remaining activity at 10 µM": 13.7}
{"smiles": "Cc1c(C(=O)NCC#Cc2ccc3c(-c4ccccc4)n[nH]c3c2)c(=O)n(Cc2ccc(F)c(F)c2)n1C", "note": "[II-4, 2-(3,4-difluorobenzyl)-1,5-dimethyl-3-oxo-N-[3-(3-phenyl-1H-indazol-6-yl)prop-2-yn-1-yl]-2,3-dihydro-1H-pyrazole-4-carboxamide]", "remaining activity at 10 µM": 16.9}
{"smiles": "O=C1Nc2cc(/C=C/CNC(=O)C3CCN(Cc4ccc(F)c(F)c4)C3=O)ccc2/C1=C/c1cnc[nH]1", "note": "(centres unmarked) [I-11, 1-(3,4-difluorobenzyl)-N-{(2E)-3-[(3Z)-3-(1H-imidazol-5-ylmethylidene)-2-oxo-2,3-dihydro-1H-indol-6-yl]prop-2-en-1-yl}-2-oxopyrrolidine-3-carboxamide]", "remaining activity at 10 µM": 21.7}
{"smiles": "CN(C)Cc1ccc(Nc2ncc3c(F)c(C#CCNC(=O)c4cncn(Cc5ccc(F)c(F)c5)c4=O)ccc3n2)cc1", "note": "[III-24, 1-(3,4-difluorobenzyl)-N-{3-[2-({4-[(dimethylamino)methyl]phenyl}amino)-5-fluoroquinazolin-6-yl]prop-2-yn-1-yl}-6-oxo-1,6-dihydropyrimidine-5-carboxamide]", "remaining activity at 10 µM": 8.9}
{"smiles": "CN(C)CCNC(=O)c1ccc(Nc2ncc3cc(C#CCNC(=O)c4cncn(Cc5ccc(F)c(F)c5)c4=O)ccc3n2)cc1", "remaining activity at 10 µM": 18.5}
{"smiles": "COC(=O)c1ccc(Nc2ncc3cc(/C=C/CNC(=O)c4cncn(Cc5ccc(F)c(F)c5)c4=O)ccc3n2)cc1OC", "remaining activity at 10 µM": 38.2}
{"smiles": "Cc1c(C(=O)NCC#Cc2ccc3nc(Nc4ccc(C(=O)O)cc4)ncc3c2)c(=O)n(Cc2ccc(F)c(F)c2)n1C", "note": "[III-47]", "remaining activity at 10 µM": 13.3}
{"smiles": "CC(C)n1c(=O)c(C#CCNC(=O)c2cncn(Cc3ccc(F)c(F)c3)c2=O)cc2cnc(Nc3ccc(N4CCOCC4)cc3)nc21", "note": "[IV-59, 1-(3,4-difluorobenzyl)-N-{3-[2-{[4-(morpholin-4-yl)phenyl]amino}-7-oxo-8-(propane-2-yl)-7,8-dihydropyrido[2,3-c]pyrimidin-6-yl]prop-2-yn-1-yl}-6-oxo-1,6-dihydropyrimidine-5-carboxamide]", "remaining activity at 10 µM": 12.9}
{"smiles": "Cc1c(C(=O)NCC#Cc2ccc3nc(Nc4ccc(C(=O)NC5CCC(C)CC5)cc4)ncc3c2)c(=O)n(Cc2ccc(F)c(F)c2)n1C", "note": "(centres unmarked)", "remaining activity at 10 µM": 20.8}
{"smiles": "O=C1Nc2cc(/C=C/CNC(=O)c3cncn(Cc4ccc(F)c(F)c4)c3=O)cc(F)c2/C1=C/c1cnc[nH]1", "note": "[I-46, 1-(3,4-difluorobenzyl)-N-{(2E)-3-[(3Z)-4-fluoro-3-(1H-imidazol-5-ylmethylidene)-2-oxo-2,3-dihydro-1H-indol-6-yl]prop-2-en-1-yl}-6-oxo-1,6-dihydropyrimidine-5-carboxamide]", "remaining activity at 10 µM": 15.6}
{"smiles": "Cc1c(C(=O)NC/C=C/c2ccc3nc(N)ncc3c2)c(=O)n(Cc2ccc(F)c(F)c2)n1C", "remaining activity at 10 µM": 23}
{"smiles": "CN1CCC(N(C)c2ccc(Nc3ncc4c(F)c(/C=C/CNC(=O)c5cncn(Cc6ccc(F)c(F)c6)c5=O)ccc4n3)cc2)CC1", "note": "[IV-35, 1-(3,4-difluorobenzyl)-N-{(2E)-3-[5-fluoro-2-({4-[methyl(1-methylpiperidin-4-yl)amino]phenyl}amino)quinazolin-6-yl]prop-2-en-1-yl}-6-oxo-1,6-dihydropyrimidine-5-carboxamide]", "remaining activity at 10 µM": 13.9}
{"smiles": "CCOC(=O)c1ccc(Nc2ncc3cc(/C=C/CNC(=O)c4cncn(Cc5ccc(F)c(F)c5)c4=O)ccc3n2)cc1", "note": "[IV-53, ethyl-4-({6-[(1E)-3-({[1-(3,4-difluorobenzyl)-6-oxo-1,6-dihydropyrimidin-5-yl]carbonyl}amino)prop-1-en-1-yl]quinazolin-2-yl}amino)benzoate]", "remaining activity at 10 µM": 33.4}
{"smiles": "Cc1c(C(=O)NC/C=C/c2ccc3nc(Nc4ccc(CN(C)C)cc4)ncc3c2)c(=O)n(Cc2cc(F)c(F)c(F)c2)n1C", "note": "[IV-20, N-{(2E)-3-[2-({4-[(dimethylamino)methyl]phenyl}amino)quinazolin-6-yl]prop-2-en-1-yl}-1,5-dimethyl-3-oxo-2-(3,4,5-trifluorobenzyl)-2,3-dihydro-1H-pyrazole-4-carboxamide]", "remaining activity at 10 µM": 14.3}
{"smiles": "CN1CCC(N(C)c2ccc(Nc3ncc4cc(C#CCNC(=O)c5cc(Cl)nn(Cc6ccc(F)c(F)c6)c5=O)ccc4n3)cc2)CC1", "note": "[III-41, 6-chloro-2(3,4-difluorobenzyl)-N-{3-[2-({4-[methyl(1-methylpiperidin-4-yl)amino]phenyl}amino)quinazolin-6-yl]prop-2-yn-1-yl}-3-oxo-2,3-dihydropyridazine-4-carboxamide]", "remaining activity at 10 µM": 12.7}
{"smiles": "Cc1c(C(=O)NC/C=C/c2cc(OC3CCNC3)c3nc(Nc4ccc(N5CCOCC5)cc4)ncc3c2)c(=O)n(Cc2ccc(F)c(F)c2)n1C", "note": "(centres unmarked)", "remaining activity at 10 µM": 10.3}
{"smiles": "Cc1c(C(=O)NCC#Cc2ccc3nc(Nc4ccc(C(=O)NCCN(C)C)cc4)ncc3c2)c(=O)n(Cc2ccc(F)c(F)c2)n1C", "remaining activity at 10 µM": 10.8}
{"smiles": "Cc1c(C(=O)NCC#Cc2ccc3nc(NC4CCC4)ncc3c2)c(=O)n(Cc2ccc(F)c(F)c2)n1C", "remaining activity at 10 µM": 12.3}
{"smiles": "Cc1c[nH]c(/C=C2\\C(=O)Nc3cc(/C=C/CNC(=O)c4cncn(Cc5ccc(F)c(F)c5)c4=O)cc(F)c32)n1", "note": "[I-48, 1-(3,4-difluorobenzyl)-N-[(2E)-3-{(3Z)-4-fluoro-3-[(4-methyl-1H-imidazol-2-yl)methylidene]-2-oxo-2,3-dihydro-1H-indol-6-yl}prop-2-en-1-yl]-6-oxo-1,6-dihydropyrimidine-5-carboxamide]", "remaining activity at 10 µM": 23.1}
{"smiles": "COc1cc(Nc2ncc3cc(C#CCNC(=O)c4c(C)n(C)n(Cc5ccc(F)c(F)c5)c4=O)ccc3n2)ccc1C(=O)NC1CCN(C)CC1", "remaining activity at 10 µM": 15}
{"smiles": "CN(C)Cc1ccc(Nc2ncc3cc(N4CC[C@@H](NC(=O)c5cncn(Cc6ccc(F)c(F)c6)c5=O)C4)ccc3n2)cc1", "note": "[IV-29, 1-(3,4-difluorobenzyl)-N-{(3R)-1-[2-({4-[(dimethylamino)methyl]phenyl}amino)-quinazolin-6-yl]pyrrolidin-3-yl}-6-oxo-1,6-dihydropyrimidine-5-carboxamide]", "remaining activity at 10 µM": 14.7}
{"smiles": "Cc1c(C(=O)NCC#Cc2cc(OC3CCNCC3)c3nc(Nc4ccc(N5CCOCC5)cc4)ncc3c2)c(=O)n(Cc2ccc(F)c(F)c2)n1C", "remaining activity at 10 µM": 12.3}
{"smiles": "CN(C)Cc1ccc(Nc2ncc3cc(CCCNC(=O)c4cncn(Cc5ccc(F)c(F)c5)c4=O)ccc3n2)cc1", "note": "[IV-23, 1-(3,4-difluorobenzyl)-N-{3-[2-({4-[(dimethylamino)methyl]phenyl}amino)quinazolin-6-yl]propyl}-6-oxo-1,6-dihydropyrimidine-5-carboxamide]", "remaining activity at 10 µM": 16.8}
{"smiles": "Cc1c(C(=O)NC/C=C/c2ccc3nc(Nc4ccc(C(=O)O)cc4)ncc3c2)c(=O)n(Cc2ccc(F)c(F)c2)n1C", "remaining activity at 10 µM": 12.9}
{"smiles": "COc1cc(/C=C/CNC(=O)c2cncn(Cc3ccc(F)c(F)c3)c2=O)cc2cnc(Nc3ccc(CN(C)C)cc3)nc12", "note": "[IV-18, 1-(3,4-difluorobenzyl)-N-{(2E)-3-[2-({4-[(dimethylamino)methyl]phenyl}amino)-8-methoxyquinazolin-6-yl]prop-2-en-1-yl}-6-oxo-1,6-dihydropyrimidine-5-carboxamide]", "remaining activity at 10 µM": 15}
{"smiles": "O=C1Nc2cc(/C=C/CNC(=O)c3ccnn(Cc4ccc(F)c(F)c4)c3=O)ccc2/C1=C/c1cnc[nH]1", "note": "[I-6, 2-(3,4-difluorobenzyl)-N-{(2E)-3-[(3Z)-3-(1H-imidazol-5-ylmethylidene)-2-oxo-2,3-dihydro-1H-indol-6-yl]prop-2-en-1-yl}-3-oxo-2,3-dihydropyridazine-4-carboxamide]", "remaining activity at 10 µM": 17.5}
{"smiles": "CNc1ncc2cc(/C=C/CNC(=O)c3c(C)n(C)n(Cc4ccc(F)c(F)c4)c3=O)ccc2n1", "remaining activity at 10 µM": 16.1}
{"smiles": "O=C(NCC#Cc1ccc2cn[nH]c2c1)c1cncn(Cc2ccc(F)c(F)c2)c1=O", "note": "[II-2, 1-(3,4-difluorobenzyl)-N-[3-(1H-indazol-6-yl)prop-2-yn-1-yl]-6-oxo-1,6-dihydropyrimidine-5-carboxamide]", "remaining activity at 10 µM": 12.5}
